Test results reported in patent publication US12152049B2, “STING agonistic compound” (ONO PHARMACEUTICAL CO., LTD., priority 2018, dated 2024).
Counter-ions that a name gives are not always drawn.

Legend:
THP1-Dual cells = assay: Effects on THP1-Dual cells: activation of the IRF pathway (Quanti-luc luminescence); format: cell-based; conditions: Homo sapiens, incubation about 24 hours
Method: THP1-Dual cells (Invivogen) were suspended in RPMI medium to prepare 2×10^6 cells/mL of cell suspension. 50 μL of the cell suspensions were dispensed into a 96-well plate, to which 50 μL of 6 to 20,000 nmol/L compound solutions were added. After adding the compound, the mixture was incubated at 37° C. for about 24 hours. After incubation, 10 μL of cell suspensions were collected from the respective wells, which were mixed with 50 μL of Quanti-luc (Invivogen). Then, the activation of the IRF (Interferon regulatory factor) pathway was measured by detecting luminescence using a microplate reader (Molecular Devices).

[1] = system: BTK, KDR, each subtype of PKCα to ι, each CDK of CDK2 to 9, FAK, TIE2, RAF1 and BRAF; assay: Evaluation of inhibitory activity against various kinases (mobility shift, LabChip); format: biochemical; conditions: 4 μmol/L test substance solution (4 times the final concentration)
Method: 4 μmol/L of test substance solution (the compound of the present invention shown in Example 1) (at 4 times the final concentration) was prepared by dissolving it to the assay buffer (20 mmol/L HEPES, 0.01% Triton X-100, 1 mmol/L DTT, pH 7.5). 4 μmol/L of substrate/ATP/metal solution (at 4 times the final concentration) was prepared by dissolving them to the kit buffer (20 mmol/L HEPES, 0.01% Triton X-100, 5 mmol/L DTT, pH 7.5).
Various kinase solutions at twice the final concentration were prepared by dissolving them to the assay buffer. 5 μL of the test substance solution, 5 μL of the substrate/ATP/metal solution and 10 μL of the kinase solution were mixed in wells of a polypropylene 384-well plate, of which the mixture was reacted at room temperature for 1 to 5 hours. The reaction was stopped by adding 70 μL of the termination buffer (QuickScout Screening Assist MSA; Cama Biosciences). The substrate peptide and phosphorylated peptide in the reaction solution were separated and quantified by LabChip system (Perkin Elmer). The kinase reaction was evaluated by the product ratio (P/(P+S)) calculated from the peak height (S) of the substrate peptide and the peak height (P) of the phosphorylated peptide. The various kinases used for evaluation are as follows:
BTK, KDR, each subtype of PKCα to ι, each CDK of CDK2 to 9, FAK, TIE2, RAF1 and BRAF.

[2] = system: mouse colon cancer cell line MC38; assay: Anti-tumor effect in tumor model bearing subcutaneous mouse colon cancer cell line MC38; format: in vivo, mice (C57/BL6); conditions: 3 mg/kg, administered 7 days after MC38 transplantation, measured until Day 26
Method: Colon cancer cell line MC38 derived from C57/BL6 mice were subcutaneously transplanted to right flank of syngeneic mice (C57/BL6, female, 6 weeks old (Charles River Japan)) (herein, the day of transplantation was Day 0) to prepare tumor mice bearing subcutaneous MC38. Seven days after transplantation, tumor mice bearing subcutaneous MC38 were grouped based on tumor volume, and used as the Vehicle group (n=8) and the compound administration group (3 mg/kg, n=6) shown in Example 1. The changes in tumor volume were continuously measured until the 26 days after transplantation (Day 26). The tumor volume was calculated by the following formula: [Tumor volume (mm^3)]=[major axis (mm)]×[minor axis (mm)]^2×0.5
Colon cancer cell line MC38 derived from C57/BL6 mice were subcutaneously transplanted to right flank of syngeneic mice (C57/BL6, female, 6 weeks old (Charles River Japan)) (herein, the day of transplantation was Day 0) to prepare tumor mice bearing subcutaneous MC38. They were grouped based on tumor volume 7 or 8 days after transplantation, to which the Vehicle (n=8 or 6) and the respective compounds of Examples 10 and 10(1) to 10(6) (1, 1, 1, 10, 3, 1 and 1 mg/kg, n=8 or 6) were administered. The changes in tumor volume were measured serially until the 28 or 30 days after transplantation (Day 28 or 30). The tumor volume was calculated from the formula shown in Example 16.

THP1-Dual-STING KO cells = assay: Activity on THP1-Dual-STING KO cells: IRF pathway (Quanti-luc luminescence); format: cell-based; conditions: STING gene homozygous deficient THP1-Dual cells, 6 to 20,000 nM compound solutions, about 24 hours
Method: STING gene homozygous deficient THP1-Dual cells (THP1-Dual-STING KO cells (Invivogen) were suspended in RPMI medium to prepare 2×10^6 cells/mL cell suspension. 50 μL of cell suspensions were dispensed into a 96-well plate, to which 50 μL of 6 to 20,000 nM compound solutions were further added, followed by incubation at 37° C. for about 24 hours. 10 μL of the cell suspensions were collected from the respective wells, which were mixed with 50 μL of Quanti-luc (Invivogen), and then the activity of the IRF pathway was measured by detecting luminescence using a microplate reader.

IDO1 = target: T1, IDO1 (Homo sapiens, UniProt P14902); assay: Evaluation of IDO1 inhibitory activity (IDO1 Fluorogenic Inhibitor Screening Assay Kit); format: biochemical; conditions: compound solutions of 0.6, 2, 6, 20, 60 and 200 μmol/L added
T1 construct: His-tag; purchased BPS Bioscience
T1 sequence (P14902 whole entry): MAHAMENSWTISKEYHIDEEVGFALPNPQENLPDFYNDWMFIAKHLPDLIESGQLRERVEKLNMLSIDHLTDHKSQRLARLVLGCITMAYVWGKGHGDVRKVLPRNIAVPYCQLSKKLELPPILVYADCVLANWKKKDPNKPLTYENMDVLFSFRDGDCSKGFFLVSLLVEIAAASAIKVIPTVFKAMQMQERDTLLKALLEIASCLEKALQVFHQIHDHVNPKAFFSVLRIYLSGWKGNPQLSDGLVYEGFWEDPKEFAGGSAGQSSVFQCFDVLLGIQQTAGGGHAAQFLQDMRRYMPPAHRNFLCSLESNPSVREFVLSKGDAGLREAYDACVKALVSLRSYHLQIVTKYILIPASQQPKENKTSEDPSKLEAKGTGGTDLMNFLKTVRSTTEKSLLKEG
Method: The evaluation of IDO1 inhibitory activity was carried out using the IDO1 Fluorogenic Inhibitor Screening Assay Kit (BPS Bioscience). Specifically, IDO1 Fluorogenic Reaction Solution was dissolved, of which 180 μL were added to each well. Then, 10 μL of compounds at the respective concentrations of 0.6, 2, 6, 20, 60 and 200 μmol/L were added thereto. Further, after adding 10 μL of IDO1 His-Tag solution thereto, of which the mixtures were incubated at room temperature for 1 hour, and then 20 μL of Fluorescence Solution was added thereto, of which the mixtures were incubated at 37° C. for 4 hours. After standing them at room temperature for 10 minutes, the fluorescence was measured using a microplate reader (excitation: 400 nm, emission: 510 nm).

| Structure (SMILES) | EC50 (THP1-Dual cells) [nM] | other results |
| --- | --- | --- |
| CC(=O)c1cc(-c2ncc(-c3cn[nH]c3)c3onc(N)c23)ccc1N [Example 4(9), 1-(2-amino-5-(3-amino-7-(1H-pyrazol-4-yl)isoxazolo[4,5-c]pyridin-4-yl)phenyl)ethan-1-one hydrochloride] | 130 | – |
| CS(=O)(=O)c1cc(-c2ncc(-c3cn[nH]c3)c3onc(N)c23)c(F)cc1N [Example 4(3), 4-(4-amino-2-fluoro-5-(methylsulfonyl)phenyl)-7-(1H-pyrazol-4-yl)isoxazolo[4,5-c]pyridin-3-amine hydrochloride] | 950 | – |
| CSc1cc(-c2ncc(-c3cn[nH]c3)c3onc(N)c23)c(Cl)cc1N [Example 4(16), 4-(4-amino-2-chloro-5-(methylthio)phenyl)-7-(1H-pyrazol-4-yl)isoxazolo[4,5-c]pyridin-3-amine hydrochloride] | 1000 | – |
| COC(=O)c1cc(-c2ncc(-c3cn[nH]c3)c3onc(N)c23)c(F)cc1N [Example 1, methyl 2-amino-5-(3-amino-7-(1H-pyrazol-4-yl)isoxazolo[4,5-c]pyridin-4-yl)-4-fluorobenzoate] | 180 | inhibitory activity against the evaluated kinases [1]: did not showed any significantly inhibit activities; tumor growth (tumor volume) [2]: almost completely suppressed the tumor growth; IRF activating effect (THP1-Dual-STING KO cells): no IRF activating effect; IDO1 inhibitory activity (IDO1): did not show any IDO1 inhibitory activity |
| COc1cc(-c2ncc(-c3cn[nH]c3)c3onc(N)c23)c(F)cc1N [Example 2, 4-(4-amino-2-fluoro-5-methoxyphenyl)-7-(1H-pyrazol-4-yl)isoxazolo[4,5-c]pyridin-3-amine hydrochloride] | 1930 | – |

Stronger by EC50 (THP1-Dual cells), values ahead:

| EC50 (THP1-Dual cells) [nM] | Structure (SMILES) | other results |
| --- | --- | --- |
| 100 | CNC(=O)c1cc(-c2ncc(-c3cn[nH]c3)c3onc(N)c23)ccc1N [Example 4(15), 2-amino-5-(3-amino-7-(1H-pyrazol-4-yl)isoxazolo[4,5-c]pyridin-4-yl)-N-methylbenzamide hydrochloride] | – |
| 90 | CSc1cc(-c2ncc(-c3cn[nH]c3)c3onc(N)c23)c(F)cc1N [Example 4, 4-(4-amino-2-fluoro-5-(methylthio)phenyl)-7-(1H-pyrazol-4-yl)isoxazolo[4,5-c]pyridin-3-amine hydrochloride] | – |
| 80 | NC(=O)c1cc(-c2ncc(-c3cn[nH]c3)c3onc(N)c23)c(F)cc1N [Example 4(5), 2-amino-5-(3-amino-7-(1H-pyrazol-4-yl)isoxazolo[4,5-c]pyridin-4-yl)-4-fluorobenzamide hydrochloride] | – |
| 40 | CC(=O)c1cc(-c2ncc(-c3cn[nH]c3)c3onc(N)c23)c(F)cc1N [Example 3, 1-(2-amino-5-(3-amino-7-(1H-pyrazol-4-yl)isoxazolo[4,5-c]pyridin-4-yl)-4-fluorophenyl)ethan-1-one] | – |
| 40 | CCOC(=O)c1cc(-c2ncc(-c3cn[nH]c3)c3onc(N)c23)c(F)cc1N [Example 4(6), ethyl 2-amino-5-(3-amino-7-(1H-pyrazol-4-yl)isoxazolo[4,5-c]pyridin-4-yl)-4-fluorobenzoate hydrochloride] | – |
| 20 | CCNC(=O)c1cc(-c2ncc(-c3cn[nH]c3)c3onc(N)c23)c(F)cc1N [Example 4(8), 2-amino-5-(3-amino-7-(1H-pyrazol-4-yl)isoxazolo[4,5-c]pyridin-4-yl)-N-ethyl-4-fluorobenzamide hydrochloride] | – |
| 20 | CCC(=O)c1cc(-c2ncc(-c3cn[nH]c3)c3onc(N)c23)c(F)cc1N [Example 4(7), 1-(2-amino-5-(3-amino-7-(1H-pyrazol-4-yl)isoxazolo[4,5-c]pyridin-4-yl)-4-fluorophenyl)propan-1-one hydrochloride] | – |
